According to US20130197016A1, “DOSING REGIMES FOR THE TREATMENT OF OCULAR VASCULAR DISEASE” (priority 2010, published 2013):
Entries after “also recorded” stand apart in the source; their conditions may differ. Read-outs that look alike come from different tables or passages of the source.

How the values were obtained:
[1] = test system: laser-induced choroidal neovascularization (CNV) area; assay: Rat laser-induced CNV model; weekly administration (Example 3); type: in vivo, Brown Norway rats; details: for inhibition in vivo at 1 mg/kg: 1 mg/kg weekly (before laser, day 6 and 13); for Efficacy in a weekly dosing regimen: weekly dosing at doses of Table 2, compared to daily; for inhibition in vivo at 0.3 mg/kg: 0.3 mg/kg weekly (before laser, day 6 and 13); for inhibition in vivo at 3 mg/kg: 3 mg/kg weekly (before laser, day 6 and 13), formulation A (B for Compound 9)
Method: After laser insults, the rats were administered the compounds of Table 1 formulated as specified in Table 2 or placebo on day 6 and 13.

[2] = Ocular PK in Brown Norway rats following a single oral dose (Example 5); type: in vivo; details: for Kp / AUC(0-t): Brown Norway, rat; for Kp: retina/plasma, po; for AUC(0-t): sampling 6-144 hrs; for Concentration over time in posterior eye cup and retina (words, FIG. 3-6): single oral dose per Table 3 (Compound 1 30 mg/kg, Compound 2 10 mg/kg, Compound 9 10 mg/kg)
Method: Three month old Brown Norway rats were administered orally with active agent of Table 1 at the dosing concentration and formulation specified in Table 3 infra. […] The ocular tissues collected were the retina and the posterior eye cup.
Ocular tissues were homogenized and plasma proteins precipitated and drug concentration was analyzed by LC-MS/MS.

[3] = test system: laser-induced choroidal neovascularization (CNV) area; assay: Rat laser-induced choroidal neovascularization (CNV) model; daily administration (Example 1); type: in vivo, Brown Norway rats; details: 264 h, read-out: Efficacy Daily % (Ex. 1); for inhibition in vivo at 1 mg/kg: 1 mg/kg oral daily to day 11 or 12, formulation A; for inhibition in vivo at 0.3 mg/kg: 0.3 mg/kg oral daily to day 11 or 12, formulation A
Method: Three month old Brown Norway rats were administered with placebo or active agent of Table 1 at the dosing concentration and formulation specified in Table 2 infra about one hour prior to laser application. The rat eyes were dilated with one drop of phenylephrine and cyclopentolate (Altaire Pharmaceuticals inc. Aqueboque, N.Y. and Akorn Inc. Lake Forest, Ill.) and then immobilized. Each eye was administered four laser burns 2-3 disc diameters from the optic nerve with an Oculight GLx 532 nm laser (Iridex). Each study group had 10 rats, 20 eyes and 80 data points.
After laser insult, the rats were administered placebo or the compounds of Table 1 at the dosing concentration and formulation specified in Table 2 daily from day 1 to day 11 or 12. Immediately before harvesting the eyes, rodents were injected i.v. with a 2,000 kd fluorescein isothiocyanate (FITC) dextran vascular label. Tissues were harvested about 24 hours after the last dose was administered.
Eyes were fixed with 4% paraformaldehyde and the retinal pigment epithelium(RPE)/choroid/sclera complexes dissected and placed onto microscope slides. Fluorescent images of each CNV lesion were captured and lesion areas were quantified on masked data using Axiovision software (Version 4.5 Zeiss). Inter-group differences were analyzed by one-way analysis of variance (ANOVA) with a Neuman-Keuls post hoc analysis (Prism v. 4.02 by GraphPad Software, Inc. La Jolla Calif.). Efficacy is defined herein to mean the percentage reduction in CNV area after treatment compared to placebo.
Each group consisted of 10 rats, 4 laser burns/eye, and 80 data points/group. Assay length was 11 or 12 days after laser (1 mg/kg n=2, 3 mg/kg n=5, 10 mg/kg n=7, 30 mg/kg n=1).

[4] = test system: neovascular adult macular degeneration (AMD); details: oral, alone or with intravitreal bevacizumab, daily or thrice weekly, three patients; cited from earlier work
[5] = Rattus norvegicus, 144 h, formulation A, percent reduction in CNV area vs vehicle control, read-out: Efficacy Weekly % (Ex. 3)
[6] = percent reduction in CNV area vs vehicle control
[7] = Rattus norvegicus, 144 h, percent reduction in CNV area vs vehicle control, read-out: Efficacy Weekly % (Ex. 3)
[8] = 3 mg/kg oral daily to day 11 or 12, formulation A (B for Compound 9), percent reduction in CNV area vs vehicle control

## Cc1ccc(Nc2nccc(N(C)c3ccc4c(C)n(C)nc4c3)n2)cc1S(N)(=O)=O [Compound 1, 5-[[4-[(2,3-Dimethyl-2H-indazol-6-yl)methylamino]-2-pyrimidinyl]amino]-2-methylbenzolsulfonamide]
[1]; Rattus norvegicus, 144 h, 30 mg/kg weekly (before laser, day 6 and 13), formulation A, percent reduction in CNV area vs vehicle control, read-out: Efficacy Weekly % (Ex. 3)
  inhibition in vivo at 30 mg/kg: 50%
[2]; 30 mg/kg
  Kp: 0.2
[2]; single oral dose 30 mg/kg, plasma, read-out: AUC(last) Plasma
  AUC(0-t): 583 µM·h
[2]; single oral dose 30 mg/kg, posterior eye cup, read-out: AUC(last) PEC
  AUC(0-t): 6820 µM·h
[2]; single oral dose 30 mg/kg, retina, read-out: AUC(last) Retina
  AUC(0-t): 132 µM·h
[2]; single oral dose per Table 3 (Compound 1 30 mg/kg, Compound 2 10 mg/kg)
  Plasma exposure over time (words, FIG. 3-4): increased plasma exposure throughout the duration of the week after administration
[2]
  Concentration over time in posterior eye cup and retina (words, FIG. 3-6): sustained ocular exposure in the posterior eye cup tissues for at least a week
[3]; 30 mg/kg oral daily to day 11 or 12, formulation A, percent reduction in CNV area vs vehicle control
  inhibition in vivo at 30 mg/kg: 42%

## Nc1cc(Oc2ccc3c(C(=O)Nc4cccc(C(F)(F)F)c4)cccc3c2)ncn1 [Compound 3, 6-(6-Amino-pyrimidin-4-yloxy)-naphthalene-1-carboxylic acid (3-trifluoromethyl-phenyl)-amide]
[1]; [5]
  inhibition in vivo at 1 mg/kg: 57%
[1]
  Efficacy in a weekly dosing regimen: greatest level of efficacy
[3]; [6]
  inhibition in vivo at 1 mg/kg: 63%

## CC(=O)N1Cc2ncnc(Oc3ccc4c(ccn4C(=O)Nc4cc(C5CC5)on4)c3)c2C[C@@H]1C [Compound 4, (−)-5-((S)-7-Acetyl-6-methyl-5,6,7,8-tetrahydro-pyrido[3,4-d]pyrimidin-4-yloxy)-indole-1-carboxylic acid (5-cyclopropyl-isoxazol-3-yl)-amide]
[1]; [5]
  inhibition in vivo at 0.3 mg/kg: 50%
[3]; [6]
  inhibition in vivo at 0.3 mg/kg: 96%

## CC1(c2cc(NC(=O)n3ccc4cc(Oc5ncnc6c5CCNC6)ccc43)[nH]n2)CC1 [Compound 5, 5-(5,6,7,8-Tetrahydro-pyrido[3,4-d]pyrimidin-4-yloxy)-indole-1-carboxylic acid [5-(1-methyl-cyclopropyl)-2H-pyrazol-3-yl]-amide]
[1]; Rattus norvegicus, 144 h, 10 mg/kg weekly (before laser, day 6 and 13), formulation A, percent reduction in CNV area vs vehicle control, read-out: Efficacy Weekly % (Ex. 3)
  inhibition in vivo at 10 mg/kg: 50%
[3]; 10 mg/kg oral daily to day 11 or 12, formulation A, percent reduction in CNV area vs vehicle control
  inhibition in vivo at 10 mg/kg: 85%

## COc1cc2nccc(Oc3ccc(NC(=O)Nc4cc(C)on4)c(Cl)c3)c2cc1OC [Compound 6, 1-(2-chloro-4-((6,7-dimethoxyquinolin-4-yl)oxy)phenyl)-3-(5-methylisoxazol-3-yl)urea]
[1]; 0.3 mg/kg
  Loss of efficacy in weekly dosing compared to daily dosing: 39%
[1]; [5]
  inhibition in vivo at 0.3 mg/kg: 40%
  inhibition in vivo at 1 mg/kg: 90%
[1]
  Efficacy in a weekly dosing regimen: greatest level of efficacy
[2]; 0.3 mg/kg
  Kp: 0.6
[2]; single oral dose 0.3 mg/kg, plasma, read-out: AUC(last) Plasma
  AUC(0-t): 1.2 µM·h
[2]; single oral dose 0.3 mg/kg, posterior eye cup, read-out: AUC(last) PEC
  AUC(0-t): 83.5 µM·h
[2]; single oral dose 0.3 mg/kg, retina, read-out: AUC(last) Retina
  AUC(0-t): 2.47 µM·h
[2]; single oral dose per Table 3 (Compound 2 10 mg/kg, Compound 6 0.3 mg/kg)
  Retinal to plasma exposure ratio, comparison among compounds: lower retinal to plasma exposure ratio than Compound 2
[3]; [6]
  inhibition in vivo at 0.3 mg/kg: 79%
  inhibition in vivo at 1 mg/kg: 96%

## O=C(Nc1cccc(C(F)(F)F)c1)c1cccc2cc(Oc3cc(CO)ncn3)ccc12 [Compound 7, 6-(6-Hydroxymethyl-pyrimidin-4-yloxy)-naphthalene-1-carboxylic acid (3-trifluoromethyl-phenyl)-amide]
[1]; [7]
  inhibition in vivo at 3 mg/kg: 46%
[3]; [8]
  inhibition in vivo at 3 mg/kg: 96%

## O=C(Nc1cc(C2CC2)on1)n1ccc2cc(Oc3ncnc4c3CNC4)ccc21 [Compound 8, 5-(6,7-dihydro-5H-pyrrolo[3,4-d]pyrimidin-4-yloxy)-indole-1-carboxylic acid (5-cyclopropyl-isoxazol-3-yl)-amide]
[1]; [7]
  inhibition in vivo at 3 mg/kg: 26%
[1]
  Efficacy in a weekly dosing regimen: least efficacy
[3]; [8]
  inhibition in vivo at 3 mg/kg: 88%

## CNC(=O)c1cc(Oc2ccc(NC(=O)Nc3ccc(Cl)c(C(F)(F)F)c3)cc2)ccn1 [Compound 9, 4-[4-[[4-chloro-3-(trifluoromethyl)phenyl]carbamoylamino]phenoxy]-N-methyl-pyridine-2-carboxamide]
[1]; [7]
  inhibition in vivo at 3 mg/kg: 26%
[1]
  Efficacy in a weekly dosing regimen: least efficacy; also recorded: absence of efficacy
[2]; 10 mg/kg
  Kp: 2.1
[2]; single oral dose 10 mg/kg, plasma, read-out: AUC(last) Plasma
  AUC(0-t): 151 µM·h
[2]; single oral dose 10 mg/kg, posterior eye cup, read-out: AUC(last) PEC
  AUC(0-t): 82 µM·h
[2]; single oral dose 10 mg/kg, retina, read-out: AUC(last) Retina
  AUC(0-t): 95.1 µM·h
[2]
  Concentration over time in posterior eye cup and retina (words, FIG. 3-6): substantially similar at each sampling time point
[3]; po
  inhibition in vivo at 3 mg/kg: 90%
[4]
  Benefit in neovascular AMD patients: uncertain benefit

## CNCc1cc(Oc2ccc3c(ccn3C(=O)Nc3cc(C(F)(F)F)n(C)n3)c2)ncn1 [Compound 10, 5-(6-Methylaminomethyl-pyrimidin-4-yloxy)-indole-1-carboxylic acid (1-methyl-5-trifluoromethyl-1H-pyrazol-3-yl)-amide]
[1]; [5]
  inhibition in vivo at 1 mg/kg: 23%
[1]
  Efficacy in a weekly dosing regimen: least efficacy
[3]; [6]
  inhibition in vivo at 1 mg/kg: 88%
